Measurements as given in patent publication US9771372B2, “Compounds useful as S100-inhibitors” (Active Biotech AB, priority 2014, dated 2017).

Molecular target: T1, interaction between biotinylated human S100A9 and human RAGE-Fc (Homo sapiens, UniProt P06702)
T1 construct: made in house; host or cells: E. coli BL21(DE3)/pET1120 (pLR757)
T1 sequence (P06702 1-114): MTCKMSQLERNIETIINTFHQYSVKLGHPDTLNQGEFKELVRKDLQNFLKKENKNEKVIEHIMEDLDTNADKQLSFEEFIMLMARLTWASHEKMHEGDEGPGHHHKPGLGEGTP
Experiment: AlphaScreen inhibition assay, Biot-hS100A9:hRAGE-Fc (S100A9-RAGE inhibition assay)
Assay type: binding
Conditions: biot-hS100A9 and rhRAGE-Fc, Ca2+ and Zn2+ in buffer
In short: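 Biotinylated human S100A9, in HBS-P with CaCl2 and ZnCl2, preincubated 1 h at room temperature in the dark with compound (final DMSO ≤1.25%), then combined with rhRAGE-Fc on protein A Acceptor beads plus streptavidin Donor beads (20 μg/mL each). Protein levels batch-dependent; percent inhibition from AlphaScreen signal vs DMSO-only control.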

IC50 [µM]	Structure (SMILES)
0.54	CSc1ccc(-c2cccc3c2nc2n3C(NC(=O)CCC3CCCC3)(C(F)(F)F)C(=O)N2)cc1 (centres unmarked) [Example 232, 3-cyclopentyl-N-{9-[4-(methylsulfanyl)phenyl]-4-oxo-3-(trifluoromethyl)-2,5,7-triazatricyclo[6.4.0.0^2,6]dodeca-1(12),6,8,10-tetraen-3-yl}propanamide]
5.9	Cc1cc2nc3n(c2cc1C)C(NC(=O)[C@@H]1CCCN1S(C)(=O)=O)(C(F)(F)F)C(=O)N3 (single isomer, unassigned) [Example 89]
